Assay results reported in ChEMBL document CHEMBL2202993, “Non-proteinogenic amino acids in the pThr-2 position of a pentamer peptide that confer high binding affinity for the polo box domain (PBD) of polo-like kinase 1 (Plk1)” (Bioorg Med Chem Lett, 2012).
Numbered stars: 1 amine (or outer) side, 2 acyl side, 3 side chain; on linkers, the order of the positions; unused ones are H or OH. Square brackets hold non-standard residues; d marks the D form. Peptide text beside a SMILES is read from it. X2 = O=C([C@H](Cc1cn(CCCCCCCCc2ccccc2)c2ccccc12)N[*:1])[*:2]; X1 = O=C([C@H](Cc1cn(CCCCCCCCc2ccccc2)cn1)N[*:1])[*:2]; pT = C[C@@H](OP(=O)(O)O)[C@H](N)C(=O)O

Target: Serine/threonine-protein kinase PLK1 (Homo sapiens, UniProt P53350)
Test: Competitive binding affinity to GFP-HA-fused PLK1 polo box domain expressed in HEK293A cells using biotinylated p-T38 peptide as substrate after 1 hr by ELISA
Parameters: species or system HEK293-A

Chain of Serine/threonine-protein kinase PLK1 (P53350 whole entry, the tested form may be a part): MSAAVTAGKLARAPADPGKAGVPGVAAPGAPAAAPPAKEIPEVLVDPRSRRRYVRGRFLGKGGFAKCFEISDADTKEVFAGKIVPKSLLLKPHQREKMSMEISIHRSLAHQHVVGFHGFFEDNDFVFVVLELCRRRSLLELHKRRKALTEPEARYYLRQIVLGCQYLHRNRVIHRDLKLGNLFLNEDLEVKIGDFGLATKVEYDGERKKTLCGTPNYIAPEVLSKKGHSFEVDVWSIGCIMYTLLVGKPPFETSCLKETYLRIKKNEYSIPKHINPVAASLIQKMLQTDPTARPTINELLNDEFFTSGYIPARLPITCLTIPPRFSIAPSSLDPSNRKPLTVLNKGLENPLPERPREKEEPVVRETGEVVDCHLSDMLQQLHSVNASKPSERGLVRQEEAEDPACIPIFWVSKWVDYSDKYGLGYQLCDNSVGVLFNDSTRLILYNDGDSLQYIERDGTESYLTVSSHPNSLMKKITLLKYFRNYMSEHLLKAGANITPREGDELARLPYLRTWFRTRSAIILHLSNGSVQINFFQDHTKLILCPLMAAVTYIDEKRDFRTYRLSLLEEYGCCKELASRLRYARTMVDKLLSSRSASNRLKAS

| SMILES | IC50 [µM] |
| --- | --- |
| CC(=O)N1CCC[C@H]1C(=O)N[C@@H](CC(C)C)C(=O)N[C@@H](Cc1cn(CCCCCCCCc2ccccc2)cn1)C(=O)N[C@@H](CO)C(=O)N[C@H](C(N)=O)[C@@H](C)OP(=O)(O)O (Ac-PL[X1]S[pT]-NH2) | 0.32 |
| CC(=O)N1CCC[C@H]1C(=O)N[C@@H](CC(C)C)C(=O)N[C@@H](Cc1cn(CCCCCCCCc2ccccc2)c2ccccc12)C(=O)N[C@@H](CO)C(=O)N[C@H](C(N)=O)[C@@H](C)OP(=O)(O)O (Ac-PL[X2]S[pT]-NH2) | 9.3 |
